These results are taken from patent US10683292B2, “Purine and 3-deazapurine analogues as choline kinase inhibitors” (NERVIANO MEDICAL SCIENCES S.R.L., priority 2016, dated 2020).

Each structure is given as a SMILES string. Where a name gives a salt, the structure may show the parent alone.

One test has as its target T1, Δ49N-hChoKα (Homo sapiens, UniProt P35790).
T1 construct: cDNA fragment 362-1534, corresponding to aminoacids 50-457; GST (N, cleaved yes); Prescission Protease recognition site (N, cleaved yes); made in house; host or cells: Escherichia coli BL21pLysS (DE3)
As to the kind of experiment: Biochemical kinase inhibition assay (Kinase-Glo Luminescent Kinase Assay) on Δ49N-hChoKα. To be noted: ATP 5 μM, choline 5 μM, 60 minutes at rt; read-out: IC50 ChoKα. A general note: In Kinase-Glo more light means more ATP remaining.

In another test the target is T2, hChoKβ FL (Homo sapiens, UniProt Q9Y259).
T2 construct: hChoKβ full length (FL), corresponding to aminoacids 2-395; GST (N, cleaved yes); Prescission Protease recognition site (N, cleaved yes); made in house; host or cells: Escherichia coli BL21pLysS (DE3)
Nature of the test: Biochemical kinase inhibition assay (Kinase-Glo Luminescent Kinase Assay) on hChoKβ FL. To be noted: ATP 5 μM, choline 20 μM, 60 minutes at rt; read-out: IC50 ChoKβ.

Usually IC50 stands for the concentration needed to halve the response being measured.

T2 sequence (Q9Y259 2-395): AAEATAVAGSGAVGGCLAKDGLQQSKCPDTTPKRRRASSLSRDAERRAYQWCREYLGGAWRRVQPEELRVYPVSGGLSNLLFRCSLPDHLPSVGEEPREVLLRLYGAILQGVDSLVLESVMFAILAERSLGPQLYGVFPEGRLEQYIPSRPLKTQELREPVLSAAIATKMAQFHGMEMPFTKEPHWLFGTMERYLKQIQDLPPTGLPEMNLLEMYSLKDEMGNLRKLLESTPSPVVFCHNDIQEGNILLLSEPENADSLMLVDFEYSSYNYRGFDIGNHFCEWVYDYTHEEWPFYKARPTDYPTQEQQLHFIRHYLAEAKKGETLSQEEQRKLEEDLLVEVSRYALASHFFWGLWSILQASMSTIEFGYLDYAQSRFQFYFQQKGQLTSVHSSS
T1 sequence (P35790 50-457, stated change not applied): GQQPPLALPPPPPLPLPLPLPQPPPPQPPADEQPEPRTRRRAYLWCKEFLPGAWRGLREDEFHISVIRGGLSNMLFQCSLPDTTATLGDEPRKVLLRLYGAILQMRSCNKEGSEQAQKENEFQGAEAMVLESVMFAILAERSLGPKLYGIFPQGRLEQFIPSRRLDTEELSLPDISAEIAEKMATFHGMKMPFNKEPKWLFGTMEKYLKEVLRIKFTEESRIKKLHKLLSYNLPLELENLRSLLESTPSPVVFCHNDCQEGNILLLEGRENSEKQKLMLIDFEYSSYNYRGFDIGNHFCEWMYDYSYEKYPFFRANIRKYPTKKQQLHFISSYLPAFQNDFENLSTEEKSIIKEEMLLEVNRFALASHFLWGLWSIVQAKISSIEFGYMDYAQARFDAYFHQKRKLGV
Procedure for hChoKβ FL: (§1) The biochemical activity of compounds against Δ49N-ChoKα and ChoKβ FL were determined using the Kinase-Glo™ Luminescent Kinase Assay (Promega cat. V6711).
(§2) Compounds were 3-fold serially diluted from 10 to 0.0005 μM, then incubated for 60 minutes at rt in the presence of ATP 5 μM, choline (5 μM for ChoKα and 20 μM for ChoKβ) and enzyme in a final volume of 19 μL of kinase buffer (50 mM Hepes pH 7.5, 10 mM MgCl2, 1 mM DTT, 3 μM Na3VO4 and 0.2 mg/mL BSA). The final concentration of DMSO was 1%.
(§3) At the end of the incubation, an amount of 19 μL of KinaseGlo Reagent was added to each well to stop the reaction and after 30 minutes the luminescence signal was measured using ViewLux reader (Perkin Elmer).
(§4) The data per each molecule are analyzed by an internally customized version of the SW package “Assay Explorer” which provides sigmoidal fittings of the ten-dilution curves for IC50 determination using a 4 parameter logistic equation: y=bottom+(top−bottom)/(1+10^((log IC50−x)*slope)) where x is the logarithm of the inhibitor concentration, y is the response; y starts at bottom and goes to top with a sigmoid shape.
Procedure for Δ49N-hChoKα: as §1, §2, §3, §4

As to `COc1nc(N)c2ncn([C@H]3CC[C@@H](C(=O)Nc4nc(C)cs4)CC3)c2n1` [cpd 84, cis-4-(6-amino-2-methoxy-9H-purin-9-yl)-N-(4-methyl-1,3-thiazol-2-yl)cyclohexanecarboxamide], the IC50 on Δ49N-hChoKα was 0.086 µM; at hChoKβ FL it was over 10 µM.
The corresponding values for `Cc1csc(NC(=O)[C@H]2CC[C@@H](n3cnc4c(N)nc(-c5cccc(C(=O)Nc6ccc(CN7CCC(N(C)C)CC7)cc6)c5)nc43)CC2)n1` [cpd 85, 3-(6-amino-9-{cis-4-[(4-methyl-1,3-thiazol-2-yl)carbamoyl]cyclohexyl}-9H-purin-2-yl)-N-(4-{[4-(dimethylamino)piperidin-1-yl]methyl}phenyl)benzamide bis-trifluoroacetate] are 0.011 µM and over 10 µM.
The corresponding values for `Nc1nc(Cl)nc2c1ncn2[C@H]1CC[C@@H](C(=O)Nc2nc(CC(=O)N3CCC(N4CCCCC4)CC3)cs2)CC1` [cpd 86, cis-4-(6-amino-2-chloro-9H-purin-9-yl)-N-{4-[2-(1,4′-bipiperidin-1′-yl)-2-oxoethyl]-1,3-thiazol-2-yl}cyclohexanecarboxamide] are 0.052 µM and over 10 µM.
With `COc1cccc(NC(=O)[C@H]2CC[C@@H](n3cnc4c(N)nc(C5CC5)nc43)CC2)c1` [cpd 87, cis-4-(6-amino-2-cyclopropyl-9H-purin-9-yl)-N-(3-methoxyphenyl)cyclohexanecarboxamide], the IC50 is 0.974 µM at Δ49N-hChoKα and over 10 µM on hChoKβ FL.
Taken in the same sequence, the figures for `COC(=O)[C@H]1CC[C@@H](n2cnc3c(N)nc(Cl)nc32)CC1` [cpd 88, methyl cis-4-(6-amino-2-chloro-9H-purin-9-yl)cyclohexanecarboxylate] were 0.524 µM and over 10 µM.
As for `CS(=O)(=O)c1ccc2nc(NC(=O)[C@H]3CC[C@@H](n4cnc5c(N)nc(Cl)nc54)CC3)sc2c1` [cpd 89, cis-4-(6-amino-2-chloro-9H-purin-9-yl)-N-[6-(methylsulfonyl)-1,3-benzothiazol-2-yl]cyclohexanecarboxamide], the IC50 is 0.064 µM at Δ49N-hChoKα and 4.16 µM on hChoKβ FL.
For `Nc1nc(Cl)nc2c1ncn2[C@H]1CC[C@@H](C(=O)Nc2nc3ccc(Cl)cc3s2)CC1` [cpd 90, cis-4-(6-amino-2-chloro-9H-purin-9-yl)-N-(6-chloro-1,3-benzothiazol-2-yl)cyclohexanecarboxamide], the IC50 is 0.028 µM on Δ49N-hChoKα and over 10 µM at hChoKβ FL.
Turning to `Cc1cc2nc(NC(=O)[C@H]3CC[C@@H](n4cnc5c(N)nc(Cl)nc54)CC3)sc2cc1C` [cpd 93, cis-4-(6-amino-2-chloro-9H-purin-9-yl)-N-(5,6-dimethyl-1,3-benzothiazol-2-yl)cyclohexanecarboxamide], the IC50 at Δ49N-hChoKα was 0.048 µM; on hChoKβ FL it was 6.08 µM.
The corresponding values for `Nc1nc(Cl)nc2c1ncn2[C@H]1CC[C@@H](C(=O)Nc2nc3cc(Cl)ccc3o2)CC1` [cpd 94, cis-4-(6-amino-2-chloro-9H-purin-9-yl)-N-(5-chloro-1,3-benzoxazol-2-yl)cyclohexanecarboxamide] are 0.178 µM and 5.62 µM.
As for `Cn1c(NC(=O)[C@H]2CC[C@@H](n3cnc4c(N)nc(Cl)nc43)CC2)nc2ccccc21` [cpd 95, cis-4-(6-amino-2-chloro-9H-purin-9-yl)-N-(1-methyl-1H-benzimidazol-2-yl)cyclohexanecarboxamide], the IC50 on Δ49N-hChoKα worked out at 0.268 µM; at hChoKβ FL, 7.12 µM.
As to `Cc1csc(NC(=O)[C@H]2CC[C@@H](n3cnc4c(N)nc(-c5cccc(C(N)=O)c5)nc43)CC2)n1` [cpd 96, 3-(6-amino-9-{cis-4-[(4-methyl-1,3-thiazol-2-yl)carbamoyl]cyclohexyl}-9H-purin-2-yl)benzamide], the IC50 was 0.274 µM at Δ49N-hChoKα and over 10 µM at hChoKβ FL.
The corresponding values for `Cc1csc(NC(=O)[C@H]2CC[C@H](n3cnc4c(N)nc(-c5cccc(C(N)=O)c5)nc43)CC2)n1` [cpd 97, 3-(6-amino-9-{trans-4-[(4-methyl-1,3-thiazol-2-yl)carbamoyl]cyclohexyl}-9H-purin-2-yl)benzamide] are 0.478 µM and over 10 µM.
Consider `Cc1csc(NC(=O)[C@H]2CC[C@@H](n3cnc4c(N)nc(C#C[Si](C)(C)C)nc43)CC2)n1` [cpd 98, cis-4-{6-amino-2-[(trimethylsilyl)ethynyl]-9H-purin-9-yl}-N-(4-methyl-1,3-thiazol-2-yl)cyclohexanecarboxamide], for which the IC50 on Δ49N-hChoKα is 0.12 µM; on hChoKβ FL, over 10 µM.
Consider `Cc1csc(NC(=O)[C@H]2CC[C@@H](n3cnc4c(N)nc(-c5cccc(OCc6ccccc6)c5)nc43)CC2)n1` [cpd 100, cis-4-{6-amino-2-[3-(benzyloxy)phenyl]-9H-purin-9-yl}-N-(4-methyl-1,3-thiazol-2-yl)cyclohexanecarboxamide], for which the concentration for half-maximal inhibition (IC50) at Δ49N-hChoKα is 0.248 µM; on hChoKβ FL, over 10 µM.
Consider `Cc1csc(NC(=O)[C@H]2CC[C@@H](n3cnc4c(N)nc(C#N)nc43)CC2)n1` [cpd 102, cis-4-(6-amino-2-cyano-9H-purin-9-yl)-N-(4-methyl-1,3-thiazol-2-yl)cyclohexanecarboxamide], for which the IC50 at Δ49N-hChoKα is 0.088 µM; on hChoKβ FL it was over 10 µM.
As to `Cc1csc(NC(=O)[C@H]2CC[C@@H](n3cnc4c(N)nc(-c5cccc(O)c5)nc43)CC2)n1` [cpd 103, cis-4-[6-amino-2-(3-hydroxyphenyl)-9H-purin-9-yl]-N-(4-methyl-1,3-thiazol-2-yl)cyclohexanecarboxamide], the figures for the IC50 at Δ49N-hChoKα and on hChoKβ FL were 0.176 µM and over 10 µM, respectively.
On to `Cc1csc(NC(=O)[C@H]2CC[C@@H](n3cnc4c(N)nc(-c5cc[nH]n5)nc43)CC2)n1` [cpd 112, cis-4-[6-amino-2-(1H-pyrazol-3-yl)-9H-purin-9-yl]-N-(4-methyl-1,3-thiazol-2-yl)cyclohexanecarboxamide], for which the values for the IC50 on Δ49N-hChoKα and at hChoKβ FL were 0.12 µM and over 10 µM, respectively.
With `Cc1csc(NC(=O)[C@H]2CC[C@H](n3cnc4c(N)nc(-c5cc[nH]n5)nc43)CC2)n1` [cpd 113, trans-4-[6-amino-2-(1H-pyrazol-3-yl)-9H-purin-9-yl]-N-(4-methyl-1,3-thiazol-2-yl)cyclohexanecarboxamide], the IC50 on Δ49N-hChoKα was 0.613 µM; on hChoKβ FL, over 10 µM.
Consider `COc1cccc2sc(NC(=O)[C@H]3CC[C@@H](n4cnc5c(N)nc(I)nc54)CC3)nc12` [cpd 116, cis-4-(6-amino-2-iodo-9H-purin-9-yl)-N-(4-methoxy-1,3-benzothiazol-2-yl)cyclohexanecarboxamide], for which the IC50 was 0.043 µM at Δ49N-hChoKα and over 10 µM on hChoKβ FL.
Turning to `C#Cc1nc(N)c2ncn([C@H]3CC[C@@H](C(=O)Nc4nc5c(OC)cccc5s4)CC3)c2n1` [cpd 119, cis-4-(6-amino-2-ethynyl-9H-purin-9-yl)-N-(4-methoxy-1,3-benzothiazol-2-yl)cyclohexanecarboxamide], the IC50 stood at 0.021 µM at Δ49N-hChoKα and 7.7 µM on hChoKβ FL.
Taken in the same sequence, the figures for `Nc1nc(Cl)nc2c1ncn2[C@H]1CC[C@@H](C(=O)Nc2nc(CN3CCC(N)CC3)cs2)CC1` [cpd 120, cis-4-(6-amino-2-chloro-9H-purin-9-yl)-N-{4-[(4-aminopiperidin-1-yl)methyl]-1,3-thiazol-2-yl}cyclohexanecarboxamide] were 0.04 µM and over 10 µM.
Take `COc1cccc2sc(NC(=O)[C@H]3CC[C@@H](n4cnc5c(N)nc(F)nc54)CC3)nc12` [cpd 126, cis-4-(6-amino-2-fluoro-9H-purin-9-yl)-N-(4-methoxy-1,3-benzothiazol-2-yl)cyclohexanecarboxamide]: the IC50 on Δ49N-hChoKα is 0.031 µM; on hChoKβ FL, over 10 µM.
`Nc1nc(F)nc2c1ncn2[C@H]1CC[C@@H](C(=O)Nc2nc3c(O)cccc3s2)CC1` [cpd 127, cis-4-(6-amino-2-fluoro-9H-purin-9-yl)-N-(4-hydroxy-1,3-benzothiazol-2-yl)cyclohexanecarboxamide]: the values for the IC50 at Δ49N-hChoKα and at hChoKβ FL were 0.045 µM and over 10 µM, respectively.
For `Nc1nc(F)nc2c1ncn2[C@H]1CC[C@@H](C(=O)Nc2nc3ccc(F)cc3s2)CC1` [cpd 128, cis-4-(6-amino-2-fluoro-9H-purin-9-yl)-N-(6-fluoro-1,3-benzothiazol-2-yl)cyclohexanecarboxamide], the IC50 on Δ49N-hChoKα is 0.038 µM; at hChoKβ FL, over 10 µM.
`Cc1csc(NC(=O)[C@H]2CC[C@@H](n3cnc4c(N)nc(C(F)(F)F)nc43)CC2)n1` [cpd 129, cis-4-[6-amino-2-(trifluoromethyl)-9H-purin-9-yl]-N-(4-methyl-1,3-thiazol-2-yl)cyclohexanecarboxamide]: the half-inhibitory concentration (IC50) at Δ49N-hChoKα is 0.416 µM; at hChoKβ FL, over 10 µM.
The corresponding values for `Nc1nc(C(F)(F)F)nc2c1ncn2[C@H]1CC[C@@H](C(=O)Nc2nc3ccc(F)cc3s2)CC1` [cpd 132, cis-4-[6-amino-2-(trifluoromethyl)-9H-purin-9-yl]-N-(6-fluoro-1,3-benzothiazol-2-yl)cyclohexanecarboxamide] are 0.257 µM and over 10 µM.
Regarding `Nc1nc(Cl)nc2c1ncn2[C@H]1CC[C@@H](C(=O)Nc2nc3ccncc3s2)CC1` [cpd 138, cis-4-(6-amino-2-chloro-9H-purin-9-yl)-N-([1,3]thiazolo[5,4-c]pyridin-2-yl)cyclohexanecarboxamide hydrochloride], the IC50 at Δ49N-hChoKα was 0.097 µM; at hChoKβ FL, over 10 µM.
As for `Nc1nc(Cl)nc2c1ncn2[C@H]1CC[C@@H](NC(=O)c2nc3ccccc3s2)CC1` [cpd 140, N-[cis-4-(6-amino-2-chloro-9H-purin-9-yl)cyclohexyl]-1,3-benzothiazole-2-carboxamide], the IC50 on Δ49N-hChoKα is 0.514 µM; on hChoKβ FL, over 10 µM.
